Source: patent US20030092770A1, “Combination therapy for treatment of depression” (priority 2002, published 2003)

Test system: mouse
Assay: Forced Swim Test (FST) in the mouse
Type: in vivo
Procedure: The duration of immobility during the last four minutes of the six minute test period is scored. A mouse is recorded as immobile when floating motionless or making only those movements necessary to keep its head above water.
An augmentation of action would be reflected by a reduction in immobility that is greater than the arithimetic sum of the effect of each agent alone. […] Standard statistical tests can be used to determine if this difference is significant. The same general strategy can be applied to the forced swim test as carried out in rats (below) as well as the tail suspension test, also described below.

In the case of `CC(CNS(=O)(=O)C(C)C)c1ccc(-c2ccsc2)cc1` (stereo not shown) [Example 392098], the “minimum effective dose (MED) in the Forced Swim Test” value (392098 alone, i.p., mice) is reported as 0.5 mg/kg, the “immobility of the mouse in the Forced Swim Test” value (392098 at a dose as low as 25 micrograms/kg combined with a subeffective dose of imipramine (5 mg/kg)) is reported as “statistically significant reduction in immobility” and the “effect in the Forced Swim Test” value (392098 by itself, low doses (0.025-0.1 mg/kg), mice) is reported as “no effect”. The “shift in the dose response curve of 392098” value (administered in combination with a subeffective dose of imipramine, Forced Swim Test, mice) was “at least 20 fold”.
